Test results as given in patent US8324267B2, “Kinase inhibitors and the use thereof” (Forschungzentrum Karlsruhe GmbH, priority 2001, dated 2012).

Columns and labels:
[1] = target: VEGFR-2 (Homo sapiens, UniProt P35968); test: In vitro tyrosine kinase assay (ELISA, GST kinase, polyGlu,Tyr 4:1 acceptor); format: biochemical; conditions: read-out: inhibition (−) or stimulation (+) of kinase activity relative to the control; for inhibition at 1 µg/mL: inhibitor 1 μg/ml; for inhibition at 10 µg/mL: inhibitor 10 μg/ml
Method: (§1) The inhibition of various receptor tyrosine kinases in vitro by MAE87, MAE106 and MAZ51 was investigated. The inhibitors were investigated in 2 different concentrations (1 μg/ml and 10 μg/ml). The inhibition is stated in %. “+”=stimulation of kinase activity relative to the control,
(§2) “−”=inhibition of kinase activity relative to the control.
(§3) The activity of the RTK inhibitors were determined with the aid of an ELISA. In this assay, the corresponding kinases were employed as recombinant GST fusion proteins (glutathione S-transferase). Synthetic polyGlu, Tyr 4:1 is used as acceptor. The ability of different concentrations of the test substances to inhibit the RTK-mediated phosphorylation of the abovementioned acceptor was assessed. All the tests were carried out in duplicate.
(§4) ELISA plates were coated with 0.2 mg/ml of polyGlu, Tyr 4:1 in 100 mM bicarbonate buffer (pH 9.6) overnight. This solution was removed and the microtiter plates were washed twice with TBS buffer (10 mM Tris-HCl, pH 8.1, 100 mM NaCl) and then blocked with 5% BSA/TBS for 30 min. 50 μl of test substance (2 or 20 μg/ml in 10% DMSO), 25 μl of GST kinase in 4× kinase buffer (200 mM HEPES, 100 mM NaCl, 80 μM Na3VO4 and 0.04% BSA) were introduced. The reaction was started by adding 25 μl of 160 μM ATP (in 40 mM MnCl2) as substrate of the kinases. The final concentrations of the test compounds is thus 1 or 10 μg/ml in 5% DMSO. The GST fusion proteins were employed in the following concentrations. VEGFR-2 50 NG/well, VEGFR-3 300 ng/well, Tie2 300 ng/well, EGFR 50 ng/well, ErbB2 200 ng/well, IGF-1R 50 ng/well, FGFR1 200 ng/well. The reaction mixture was incubated at 30° C. for 90 min. The kinase reaction was stopped by adding 50 μl of 30 mM EDTA/well. The microtiter plates were washed twice with 0.05% Tween20/TBS. Anti-phosphotyrosine antibody (1:500) was added in 0.05% Tween20/TBS (with 0.5% BSA, 0.025% skimmed milk powder and 100 μM Na3VO4) and incubated at 37° C. for 1 h. The microtiter plates were washed three times with 0.05% Tween20/TBS. The HRP-conjugated detection autibody (1:1000) was added in 0.05% Tween20/TBS (with 0.5% BSA, 0.025% skimmed milk powder and 100 μM Na3VO4) and incubated at 37° C. for 1 h. The microtiter plates were washed three times with 0.05% Tween20/TBS. ABTS (2,2′-azino-di-(3-ethylbenz-thiazoline-6-sulfonate)) substrate (Roche Diagnostics GmbH, Mannheim) was added. The OD was determined at 405 nm using an ELISA reader.

[2] = target: VEGFR-3 (Homo sapiens, UniProt P35916); test: as above; format: biochemical; conditions: read-out: inhibition (−) or stimulation (+) of kinase activity relative to the control; for inhibition at 1 µg/mL: inhibitor 1 μg/ml; for inhibition at 10 µg/mL: inhibitor 10 μg/ml
Method: as §1, §2, §3, §4

[3] = target: EGFR (Homo sapiens, UniProt P00533); test: as above; format: biochemical; conditions: read-out: inhibition (−) or stimulation (+) of kinase activity relative to the control; for inhibition at 1 µg/mL: inhibitor 1 μg/ml; for inhibition at 10 µg/mL: inhibitor 10 μg/ml
Method: as §1, §2, §3, §4

[4] = target: ErbB2 (Homo sapiens, UniProt P04626); test: as above; format: biochemical; conditions: read-out: inhibition (−) or stimulation (+) of kinase activity relative to the control; for inhibition at 1 µg/mL: inhibitor 1 μg/ml; for inhibition at 10 µg/mL: inhibitor 10 μg/ml
Chain of ErbB2 (P04626 23-1255): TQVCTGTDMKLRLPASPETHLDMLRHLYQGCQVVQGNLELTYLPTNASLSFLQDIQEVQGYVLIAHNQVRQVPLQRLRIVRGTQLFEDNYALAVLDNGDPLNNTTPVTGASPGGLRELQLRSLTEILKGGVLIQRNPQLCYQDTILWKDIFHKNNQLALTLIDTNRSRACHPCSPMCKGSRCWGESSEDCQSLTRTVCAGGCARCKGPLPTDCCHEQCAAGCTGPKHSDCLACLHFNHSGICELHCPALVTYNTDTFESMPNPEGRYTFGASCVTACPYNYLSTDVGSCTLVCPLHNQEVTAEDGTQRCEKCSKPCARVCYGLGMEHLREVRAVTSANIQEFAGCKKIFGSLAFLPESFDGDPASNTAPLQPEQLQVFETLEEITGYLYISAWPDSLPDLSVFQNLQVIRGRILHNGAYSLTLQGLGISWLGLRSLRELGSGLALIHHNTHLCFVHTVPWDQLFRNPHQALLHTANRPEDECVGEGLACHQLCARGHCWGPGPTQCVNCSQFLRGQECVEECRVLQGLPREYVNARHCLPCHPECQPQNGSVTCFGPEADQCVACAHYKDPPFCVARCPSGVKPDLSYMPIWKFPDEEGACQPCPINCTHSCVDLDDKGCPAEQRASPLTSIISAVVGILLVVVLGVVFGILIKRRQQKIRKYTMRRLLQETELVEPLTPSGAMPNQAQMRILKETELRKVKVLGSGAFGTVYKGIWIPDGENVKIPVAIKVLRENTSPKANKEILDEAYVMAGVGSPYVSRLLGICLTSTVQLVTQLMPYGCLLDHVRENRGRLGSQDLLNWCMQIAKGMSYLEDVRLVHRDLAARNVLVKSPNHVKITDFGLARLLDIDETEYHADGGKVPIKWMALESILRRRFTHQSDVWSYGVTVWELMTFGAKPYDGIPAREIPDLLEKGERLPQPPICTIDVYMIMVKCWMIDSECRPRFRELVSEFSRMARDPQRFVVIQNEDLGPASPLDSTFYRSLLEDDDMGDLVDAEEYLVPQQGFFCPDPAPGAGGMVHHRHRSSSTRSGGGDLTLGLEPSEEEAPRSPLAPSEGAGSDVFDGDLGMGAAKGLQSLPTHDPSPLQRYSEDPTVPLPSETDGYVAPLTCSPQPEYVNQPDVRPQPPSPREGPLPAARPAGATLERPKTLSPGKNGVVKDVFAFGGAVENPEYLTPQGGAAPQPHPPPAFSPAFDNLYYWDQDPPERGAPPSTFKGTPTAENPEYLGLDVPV
Method: as §1, §2, §3, §4

[5] = target: IGF1R (Homo sapiens, UniProt P08069); test: as above; format: biochemical; conditions: read-out: inhibition (−) or stimulation (+) of kinase activity relative to the control; for inhibition at 1 µg/mL: inhibitor 1 μg/ml; for inhibition at 10 µg/mL: inhibitor 10 μg/ml
Chain of IGF1R (P08069 31-1367): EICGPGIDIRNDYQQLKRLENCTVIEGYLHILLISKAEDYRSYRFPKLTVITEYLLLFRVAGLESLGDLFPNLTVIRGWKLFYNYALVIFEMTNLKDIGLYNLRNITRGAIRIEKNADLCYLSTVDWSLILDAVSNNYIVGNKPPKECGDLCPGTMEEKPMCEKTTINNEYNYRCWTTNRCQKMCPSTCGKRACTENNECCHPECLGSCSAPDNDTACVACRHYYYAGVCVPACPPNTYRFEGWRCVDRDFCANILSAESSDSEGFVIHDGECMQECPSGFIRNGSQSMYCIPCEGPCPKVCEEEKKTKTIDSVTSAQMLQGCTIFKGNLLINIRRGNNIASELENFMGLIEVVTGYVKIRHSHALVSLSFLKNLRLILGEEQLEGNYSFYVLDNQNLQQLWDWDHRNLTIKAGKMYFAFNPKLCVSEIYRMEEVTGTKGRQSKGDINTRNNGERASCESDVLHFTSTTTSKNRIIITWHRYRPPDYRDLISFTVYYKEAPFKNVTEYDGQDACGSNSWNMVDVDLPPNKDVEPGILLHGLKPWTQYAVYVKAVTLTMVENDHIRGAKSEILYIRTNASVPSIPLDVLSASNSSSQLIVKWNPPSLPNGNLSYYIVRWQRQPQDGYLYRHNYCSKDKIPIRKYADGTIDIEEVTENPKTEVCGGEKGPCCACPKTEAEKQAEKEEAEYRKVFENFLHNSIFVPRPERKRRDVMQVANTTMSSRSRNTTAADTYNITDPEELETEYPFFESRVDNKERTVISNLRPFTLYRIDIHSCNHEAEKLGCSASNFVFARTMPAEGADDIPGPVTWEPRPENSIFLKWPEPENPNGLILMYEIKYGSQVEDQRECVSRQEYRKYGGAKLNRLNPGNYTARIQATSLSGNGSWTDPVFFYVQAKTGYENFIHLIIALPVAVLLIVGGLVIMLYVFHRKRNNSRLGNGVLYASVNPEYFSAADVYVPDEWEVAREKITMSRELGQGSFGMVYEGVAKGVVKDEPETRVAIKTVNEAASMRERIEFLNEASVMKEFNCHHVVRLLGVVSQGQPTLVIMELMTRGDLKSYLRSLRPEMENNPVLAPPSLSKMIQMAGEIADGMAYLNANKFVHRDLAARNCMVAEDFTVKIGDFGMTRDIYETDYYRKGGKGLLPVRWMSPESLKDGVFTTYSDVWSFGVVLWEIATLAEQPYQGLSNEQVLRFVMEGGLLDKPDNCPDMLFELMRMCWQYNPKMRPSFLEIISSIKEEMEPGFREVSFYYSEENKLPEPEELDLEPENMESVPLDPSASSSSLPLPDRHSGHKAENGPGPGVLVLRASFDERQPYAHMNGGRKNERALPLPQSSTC
Method: as §1, §2, §3, §4

[6] = target: FGFR1 (Homo sapiens, UniProt P11362); test: as above; format: biochemical; conditions: read-out: inhibition (−) or stimulation (+) of kinase activity relative to the control; for inhibition at 1 µg/mL: inhibitor 1 μg/ml; for inhibition at 10 µg/mL: inhibitor 10 μg/ml
Chain of FGFR1 (P11362 22-822): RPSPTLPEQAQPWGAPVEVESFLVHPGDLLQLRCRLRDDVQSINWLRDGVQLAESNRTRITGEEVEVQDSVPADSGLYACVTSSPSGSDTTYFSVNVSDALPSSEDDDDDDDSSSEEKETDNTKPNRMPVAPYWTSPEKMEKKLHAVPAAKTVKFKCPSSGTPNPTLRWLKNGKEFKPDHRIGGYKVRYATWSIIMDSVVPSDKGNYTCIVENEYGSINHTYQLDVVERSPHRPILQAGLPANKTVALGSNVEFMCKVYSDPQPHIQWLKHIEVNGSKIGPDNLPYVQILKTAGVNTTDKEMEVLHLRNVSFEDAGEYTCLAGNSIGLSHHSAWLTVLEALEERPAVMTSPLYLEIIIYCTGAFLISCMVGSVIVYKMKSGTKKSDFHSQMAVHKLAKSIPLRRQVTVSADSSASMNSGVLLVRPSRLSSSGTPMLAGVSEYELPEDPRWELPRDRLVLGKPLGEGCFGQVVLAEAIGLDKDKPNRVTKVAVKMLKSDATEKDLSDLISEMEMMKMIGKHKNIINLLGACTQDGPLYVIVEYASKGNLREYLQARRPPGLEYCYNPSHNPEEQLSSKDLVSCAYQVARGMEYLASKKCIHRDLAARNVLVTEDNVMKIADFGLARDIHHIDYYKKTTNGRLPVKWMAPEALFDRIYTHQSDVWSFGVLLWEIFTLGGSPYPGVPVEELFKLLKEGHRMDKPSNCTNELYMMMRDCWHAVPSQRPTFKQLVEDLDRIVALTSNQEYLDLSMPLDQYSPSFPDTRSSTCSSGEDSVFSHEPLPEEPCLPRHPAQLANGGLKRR
Method: as §1, §2, §3, §4

[7] = target: Tie2 (Homo sapiens, UniProt Q02763); test: as above; format: biochemical; conditions: read-out: inhibition (−) or stimulation (+) of kinase activity relative to the control; for inhibition at 1 µg/mL: inhibitor 1 μg/ml; for inhibition at 10 µg/mL: inhibitor 10 μg/ml
Chain of Tie2 (Q02763 23-1124): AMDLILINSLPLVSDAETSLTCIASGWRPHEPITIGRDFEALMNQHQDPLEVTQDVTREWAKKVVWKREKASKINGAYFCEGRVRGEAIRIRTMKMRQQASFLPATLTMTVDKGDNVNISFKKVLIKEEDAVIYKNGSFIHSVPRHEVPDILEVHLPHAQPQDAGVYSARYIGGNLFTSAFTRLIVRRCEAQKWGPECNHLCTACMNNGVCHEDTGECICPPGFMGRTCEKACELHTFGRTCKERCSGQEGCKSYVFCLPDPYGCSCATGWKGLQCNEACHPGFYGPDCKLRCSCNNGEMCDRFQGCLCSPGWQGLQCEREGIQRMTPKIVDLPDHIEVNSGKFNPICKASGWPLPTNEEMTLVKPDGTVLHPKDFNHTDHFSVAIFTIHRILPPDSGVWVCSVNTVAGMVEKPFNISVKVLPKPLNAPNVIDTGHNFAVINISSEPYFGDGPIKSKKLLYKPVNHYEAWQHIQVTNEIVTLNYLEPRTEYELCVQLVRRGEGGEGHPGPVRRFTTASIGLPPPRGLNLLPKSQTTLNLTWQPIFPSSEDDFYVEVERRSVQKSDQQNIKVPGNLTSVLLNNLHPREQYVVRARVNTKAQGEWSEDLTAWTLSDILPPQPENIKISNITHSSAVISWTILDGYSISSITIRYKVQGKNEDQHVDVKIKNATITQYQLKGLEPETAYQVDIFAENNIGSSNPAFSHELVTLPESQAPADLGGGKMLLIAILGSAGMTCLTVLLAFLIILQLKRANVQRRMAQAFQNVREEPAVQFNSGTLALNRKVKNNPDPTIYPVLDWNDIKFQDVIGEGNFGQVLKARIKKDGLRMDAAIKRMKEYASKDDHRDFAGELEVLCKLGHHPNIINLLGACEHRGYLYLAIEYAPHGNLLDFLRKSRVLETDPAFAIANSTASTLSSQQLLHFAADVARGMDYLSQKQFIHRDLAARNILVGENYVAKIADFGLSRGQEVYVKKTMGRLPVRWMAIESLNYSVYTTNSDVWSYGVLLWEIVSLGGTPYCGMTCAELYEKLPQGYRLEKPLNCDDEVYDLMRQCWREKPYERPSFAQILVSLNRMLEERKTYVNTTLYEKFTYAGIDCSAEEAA
Method: as §1, §2, §3, §4

[8] = test system: MT450 rat mammary carcinoma cells; test: Growth of subcutaneous MT450 mammary carcinomas in Wistar Furth rats; format: in vivo; conditions: MT450 cells s.c., 8 mg/kg/day intraperitoneally in DMSO, FIG. 8
Method: MT450 rat mammary carcinoma cells were injected subcutaneously into Wistar Furth rats. Treatment with the active substance MAZ51 at 8 mg/kg/day in 100% DMSO or solvent control (100% DMSO) was started the day after injection of the tumor cells. MAZ51 or only solvent was injected intraperitoneally each day. Each test group comprised 8 animals. The tumors were measured every 4-5 days.
FIG. 8: Depiction of the tumor volume as a function of the number of days after tumor cell injection depending on treatment of the MT450 tumor cells with MAZ51 and a DMSO solution (negative control).

[9] = test system: 1AS cells; test: Growth of subcutaneous 1AS carcinomas in BDX rats; format: in vivo, rat; conditions: 1AS cells s.c., 4-5 mg/kg each day in DMSO, FIG. 7
Method: 1AS cells (5×10^5) were injected subcutaneously into 2 groups of BDX rats (8 rats per group). One group was subsequently injected with 100 μl of DMSO/animal per day up to the end of the experiment. The other group was injected with 100 μl of MAZ51 (10 mg/ml in DMSO)/animal, equivalent to 4-5 mg/kg, each day. The tumor volume was measured normally measured regularly after the injection of the tumor cells.
FIG. 7: Depiction of the tumor volume as a function of the number of days after tumor cell injection depending on the treatment of the 1AS tumor cells with MAZ51.

SMILES	inhibition at 1 µg/mL [1]	inhibition at 10 µg/mL [1]	inhibition at 1 µg/mL [2]	inhibition at 10 µg/mL [2]	inhibition at 1 µg/mL [3]	inhibition at 10 µg/mL [3]	inhibition at 1 µg/mL [4]	inhibition at 10 µg/mL [4]	inhibition at 1 µg/mL [5]	inhibition at 10 µg/mL [5]	inhibition at 1 µg/mL [6]	inhibition at 10 µg/mL [6]	inhibition at 1 µg/mL [7]	inhibition at 10 µg/mL [7]	inhibition of tumor growth (tumor volume) [8]	inhibition of tumor growth (tumor volume) [9]
COc1ccc(C=C2C(=O)Nc3ccccc32)cc1F [MAE106, 3-(3-Fluoro-4-methoxybenzylidene)-1,3-dihydroindole-2-one]	-21%	58%	-1%	57%	5%	64%	-4%	41%	10%	71%	-5%	1%	5%	28%	–	–
O=C1Nc2ccccc2C1=Cc1ccc(O)cc1O [MAE87, 3-(2,4-Dihydroxybenzylidene)-1,3-dihydroindol-2-one]	46%	77%	9%	74%	70%	86%	45%	84%	63%	94%	50%	94%	-1%	65%	–	–
CN(C)c1ccc(C=C2C(=O)Nc3ccccc32)c2ccccc12 [MAZ51, 3-(4-Dimethylaminonaphthalen-1-ylmethylene)-1,3-dihydroindol-2-one]	8%	74%	4%	35%	25%	58%	11%	39%	10%	68%	-1%	5%	7%	27%	inhibited in vivo	considerably inhibited
